Read-outs that look alike come from different tables or passages of the source. Where only a bound is given, the exact number is not on record here.

One test deals with T1, h P2X3 (Homo sapiens, UniProt P56373).
T1 sequence (P56373 1-397): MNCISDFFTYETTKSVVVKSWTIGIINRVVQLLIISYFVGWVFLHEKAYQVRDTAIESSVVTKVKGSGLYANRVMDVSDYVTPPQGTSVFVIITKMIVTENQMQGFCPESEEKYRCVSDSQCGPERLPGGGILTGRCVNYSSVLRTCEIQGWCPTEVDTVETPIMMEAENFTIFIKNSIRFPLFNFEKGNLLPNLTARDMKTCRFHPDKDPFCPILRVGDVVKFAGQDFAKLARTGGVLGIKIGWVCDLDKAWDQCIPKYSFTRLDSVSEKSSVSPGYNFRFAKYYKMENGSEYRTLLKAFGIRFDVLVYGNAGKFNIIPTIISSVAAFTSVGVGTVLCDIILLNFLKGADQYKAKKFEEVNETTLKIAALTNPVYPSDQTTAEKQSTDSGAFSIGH
Description: In vitro electrophysiology assay for P2X3 (Sophion Qube automated patch-clamp, α,β-MeATP agonist). The test is classed as cell-based. Conditions: for h P2X3 (pIC50 range of activity): Table 3. The method, then:
Pharmacological Activity of the Compounds of the Invention. In Vitro Electrophysiology Assay for P2X3
Cells expressing P2X3 receptors were grown according to standard practice and maintained at 37° C. in a 5% humidified CO2 atmosphere. The cells were seeded into T175 flask 2 days prior to the day of the assay and dissociated from the flasks using TrypLE when grown to confluence of 80-90%. The dissociated cells were resuspended in serum free media at a cell density of 3×10^6 cells/ml and loaded onto the Sophion Qube automated patch-clamp system. The extracellular assay buffer contained 145 mM NaCl, 4 mM KCl, 2 mM CaCl2, 1 mM MgCl2, 10 mM HEPES, and 10 mM glucose at pH 7.4. The intracellular assay solution contained 140 mM CsF, 10 mM NaCl, 10 mM EGTA, 10 mM HEPES at pH 7.2. Agonist stock solutions were prepared in H2O and diluted in bath solution prior to use. All antagonists were prepared as 10 mM stock solutions in DMSO and diluted in bath solution prior to use. All experiments were performed under the whole-cell patch clamp configuration at room temperature with 384 individual cells being voltage clamped at −60 mV simultaneously on the Sophion Qube instrument. Two baseline responses were established with the application of α,β-MeATP (800 nM), with the subsequent agonist applications being washed out using extracellular assay buffer containing 0.5 U/ml apyrase. Following the second agonist application, antagonist was incubated in the absence of α,β-MeATP for 10 minutes. After antagonist preincubation, 800 nM α,β-MeATP and antagonist were co-administered to determine the inhibitory effect of the antagonist. One concentration of an antagonist was assessed against a single cell, with different concentrations of the antagonist applied to other cells on the 384 recording substrate. The control P2X3 current amplitude was taken from the peak current amplitude from the second agonist response prior to preincubation with antagonist. The peak P2X3 current amplitude in the presence of antagonist was used to calculate the inhibitory effect at each concentration of the antagonist according to the following equation: Percentage inhibition of P2X3=(P2X3 control peak amplitude-P2X3 antagonist peak amplitude)/P2X3 control peak amplitude)*100
Concentration-response curves were constructed from ten different concentrations with each concentration of antagonist tested on at least two individual cells. The concentration of the antagonist to inhibit P2X3 current by 50% (IC50) was determined by fitting the data with the following equation: Y=a+[(b−a)/(1+10^((log c−x)d)]
Where ‘a’ is minimum response, ‘b’ is maximum response, ‘c’ is IC50 and ‘d’ is Hill slope.
The results for individual compounds are provided below in Table 2 and are expressed as range of activity.
In general terms: In patch-clamp work, channel activity is measured electrically.

For another test, the target named is T2, h P2X2/3 (Homo sapiens, UniProt P56373+Q9UBL9).
T2 construct: same protocol as the P2X3 assay
T2 sequence (P56373 1-397): T1 sequence (P56373 1-397)
T2 sequence (Q9UBL9 1-471): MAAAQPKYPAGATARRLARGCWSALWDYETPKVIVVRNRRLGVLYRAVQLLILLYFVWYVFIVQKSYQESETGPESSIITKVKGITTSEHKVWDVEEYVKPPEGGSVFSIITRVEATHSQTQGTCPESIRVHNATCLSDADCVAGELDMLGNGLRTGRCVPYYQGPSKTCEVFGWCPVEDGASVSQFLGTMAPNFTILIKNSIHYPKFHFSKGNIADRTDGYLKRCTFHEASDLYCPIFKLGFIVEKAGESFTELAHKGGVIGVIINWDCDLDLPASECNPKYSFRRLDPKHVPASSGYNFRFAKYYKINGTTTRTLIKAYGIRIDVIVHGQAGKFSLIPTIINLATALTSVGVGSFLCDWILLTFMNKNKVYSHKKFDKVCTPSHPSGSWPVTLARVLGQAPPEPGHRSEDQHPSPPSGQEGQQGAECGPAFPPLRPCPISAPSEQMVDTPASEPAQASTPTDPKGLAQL
Kind of test: In vitro electrophysiology assay for P2X2/3 (same protocol, 10 μM ATP agonist). The format is cell-based. Particulars: Table 3; 10 μM ATP as agonist, mean current amplitude seven seconds after agonist; read-out: h P2X2/3 (pIC50 range of activity) (converted). The procedure:
Cells expressing P2X3 receptors were grown according to standard practice and maintained at 37° C. in a 5% humidified CO2 atmosphere. The cells were seeded into T175 flask 2 days prior to the day of the assay and dissociated from the flasks using TrypLE when grown to confluence of 80-90%. The dissociated cells were resuspended in serum free media at a cell density of 3×10^6 cells/ml and loaded onto the Sophion Qube automated patch-clamp system. The extracellular assay buffer contained 145 mM NaCl, 4 mM KCl, 2 mM CaCl2, 1 mM MgCl2, 10 mM HEPES, and 10 mM glucose at pH 7.4. The intracellular assay solution contained 140 mM CsF, 10 mM NaCl, 10 mM EGTA, 10 mM HEPES at pH 7.2. Agonist stock solutions were prepared in H2O and diluted in bath solution prior to use. All antagonists were prepared as 10 mM stock solutions in DMSO and diluted in bath solution prior to use. […] One concentration of an antagonist was assessed against a single cell, with different concentrations of the antagonist applied to other cells on the 384 recording substrate. […]
The same assay protocol was used for the P2X2/3 assay as the P2X3 assay with two modifications: 1) 10 μM ATP was used as the agonist; and 2) the mean current amplitude was measured seven seconds after the application of agonist.

The mark [1] stands for this setting: Table 2, whole-cell patch clamp, 800 nM α,β-MeATP, 10 min antagonist preincubation, read-out: h P2X3 (pIC50 range of activity) (converted).
The mark [2] stands for this setting: whole-cell patch clamp, 800 nM α,β-MeATP.

Take `Cc1ccc(CNc2nnc(CC3CCOCC3)c3ccc(-c4ncc(C)s4)cc23)nn1` [Example 15, N-((6-Methylpyridazin-3-yl)methyl)-7-(5-methylthiazol-2-yl)-4-((tetrahydro-2H-pyran-4-yl)methyl)phthalazin-1-amine]: at h P2X3 (setting [1]), the IC50 is 316 to 3160 nM.

`Fc1ccc(-c2ccc3cnnc(NCC4CC4)c3c2)cc1` [Example 2, N-(Cyclopropylmethyl)-7-(4-fluorophenyl)phthalazin-1-amine]: the IC50 at h P2X3 (setting [1]) was 316 to 3160 nM.

On to `Cc1ccc([C@@H](C)Nc2nnc(C3CC3)c3ccc(-c4ccc(F)cc4)cc23)nn1` [Example 5, (R)-4-Cyclopropyl-7-(4-fluorophenyl)-N-(1-(6-methylpyridazin-3-yl)ethyl)phthalazin-1-amine], for which the IC50 is less than 316 nM on h P2X3 (setting [1]) and 316 to 3160 nM at h P2X2/3. Further, the “h P2X3 (pIC50 range of activity)” value on h P2X3 (setting [2]) was “+++ (+++: pIC50 h P2X3 or h P2X2/3>6.5)”.

As to `Cc1ccc(C(C)Nc2nnc(C3CC3)c3ccc(-c4ccn(C)n4)cc23)nn1` (racemic) [Example 16, 4-Cyclopropyl-7-(1-methyl-1H-pyrazol-3-yl)-N-(1-(6-methylpyridazin-3-yl)ethyl)phthalazin-1-amine], the IC50 on h P2X3 (setting [1]) is 316 to 3160 nM.

With `Cc1cnc(-c2ccc3c(CC4CCOCC4)nnc(NCc4nc(C(F)(F)F)no4)c3c2)s1` [Example 14, 7-(5-Methylthiazol-2-yl)-4-((tetrahydro-2H-pyran-4-yl)methyl)-N-((3-(trifluoromethyl)-1,2,4-oxadiazol-5-yl)methyl)phthalazin-1-amine], the IC50 on h P2X3 (setting [1]) was 316 to 3160 nM.

For the compound `Cc1ccc(CNc2nncc3ccc(-c4ncc(C)s4)cc23)nn1` [Example 13, N-[(6-Methylpyridazin-3-yl)methyl]-7-(5-methylthiazol-2-yl)phthalazin-1-amine], on h P2X3 (setting [1]), the IC50 is less than 316 nM.

For `C[C@@H](Nc1nnc(C2CC2)c2ccc(-c3ccc(F)cc3)cc12)c1cnc(C(F)(F)F)nc1` [Example 4, (R)-4-Cyclopropyl-7-(4-fluorophenyl)-N-(1-(2-(trifluoromethyl)pyrimidin-5-yl)ethyl)phthalazin-1-amine], the IC50 on h P2X3 (setting [1]) was 316 to 3160 nM.

With `Cc1ccc(CNc2nccc3ccc(-c4ccc(F)cc4)cc23)nn1` [Comparative Example A, reference compound], at h P2X3 (in vitro assay on P2X3 as described above, read-out: activity on receptor P2X3 expressed as pIC50 (converted)), the IC50 is more than 3160 nM.

On to `Cc1cnc(-c2ccc3c(C4CCOCC4)nnc(NCc4ccc(C)nn4)c3c2)nc1` [Example 1, N-((6-Methylpyridazin-3-yl)methyl)-7-(5-methylpyrimidin-2-yl)-4-(tetrahydro-2H-pyran-4-yl)phthalazin-1-amine], for which the IC50 is 316 to 3160 nM on h P2X3 (setting [1]) and 3160 to 31600 nM at h P2X2/3. In addition, the “h P2X3 (pIC50 range of activity)” value at h P2X3 (setting [2]) is recorded as “++ (++: 6.5<pIC50 h P2X3 or h P2X2/3>5.5)”.

As for `Cc1ccc([C@@H](C)Nc2nnc(C3CCOCC3)c3ccc(-c4ccc(F)cc4)cc23)nn1` [Example 7, (R)-7-(4-Fluorophenyl)-N-(1-(6-methylpyridazin-3-yl)ethyl)-4-(tetrahydro-2H-pyran-4-yl)phthalazin-1-amine], at h P2X3 (setting [1]), the IC50 is less than 316 nM.

As to `Cc1ccc(C(C)Nc2nnc(C3CCOCC3)c3ccc(-c4ccn(C)n4)cc23)nn1` (stereo not drawn) [Example 17, 7-(1-Methylpyrazol-3-yl)-N-[1-(6-methylpyridazin-3-yl)ethyl]-4-tetrahydropyran-4-yl-phthalazin-1-amine], the IC50 at h P2X3 (setting [1]) was 316 to 3160 nM.

Take `Cc1ccc(C(C)Nc2nnc(C3CC3)c3ccc(-c4ccn(C)n4)cc23)nn1` (stereo not drawn) [Example 19, 4-Cyclopropyl-7-(1-methyl-1H-pyrazol-3-yl)-N-(1-(6-methylpyridazin-3-yl)ethyl)phthalazin-1-amine]: the IC50 at h P2X3 (setting [1]) was 316 to 3160 nM.

With `Cc1ccc(CNc2nnc(C3CCOCC3)c3ccc(-c4ccc(F)cn4)cc23)nn1` [Example 9, 7-(5-Fluoropyridin-2-yl)-N-((6-methylpyridazin-3-yl)methyl)-4-(tetrahydro-2H-pyran-4-yl)phthalazin-1-amine], on h P2X3 (setting [1]), the IC50 is 316 to 3160 nM.

Regarding `Cc1ccc(C(C)Nc2nnc(C3CCOCC3)c3ccc(-c4ccc(F)cn4)cc23)nn1` (single isomer, unassigned) [Example 11, 7-(5-Fluoropyridin-2-yl)-N-(1-(6-methylpyridazin-3-yl)ethyl)-4-(tetrahydro-2H-pyran-4-yl)phthalazin-1-amine], the IC50 on h P2X3 (setting [1]) was 316 to 3160 nM.

In the case of `Cc1ccc(CNc2nnc(CC3CCOCC3)c3ccc(-c4ccc(F)cn4)cc23)nn1` [Example 10, 7-(5-Fluoropyridin-2-yl)-N-((6-methylpyridazin-3-yl)methyl)-4-((tetrahydro-2H-pyran-4-yl)methyl)phthalazin-1-amine], on h P2X3 (setting [1]), the IC50 is 316 to 3160 nM.

For `C[C@@H](Nc1nnc(C2CCOCC2)c2ccc(-c3ccc(F)cc3)cc12)c1cnc(C(F)(F)F)nc1` [Example 6, (R)-7-(4-Fluorophenyl)-4-(tetrahydro-2H-pyran-4-yl)-N-(1-(2-(trifluoromethyl)pyrimidin-5-yl)ethyl)phthalazin-1-amine], the IC50 on h P2X3 (setting [1]) is 316 to 3160 nM.

Regarding `Cc1ccc(CNc2nncc3ccc(-c4ccc(F)cc4)cc23)nn1` [Example 3, 7-(4-Fluorophenyl)-N-((6-methylpyridazin-3-yl)methyl)phthalazin-1-amine], on h P2X3 (setting [1]), the IC50 was less than 316 nM.

(Values after patent publication US12534455B2, “Phthalazine derivatives as P2X3 inhibitors” (CHIESI FARMACEUTICI S.P.A., priority 2020, dated 2026).)
